PMC8260868, “Protocol for improving diffraction quality of leucyl-tRNA synthetase 1 with methylation and post-crystallization soaking and cooling in cryoprotectants” (STAR Protocols, 2021)

How the values were obtained:
Assay type in all cases: binding
[1] = target: T1, LARS1 (leucyl-tRNA synthetase 1) (Homo sapiens, UniProt Q9P2J5); test: intrinsic-fluorescence DSF (Tycho NT.[…]); details: 2, 5, 10, 20 mM leucine; Tris-HCl pH 7.5, 150 mM NaCl, 5 mM MgCl2, 2 mM DTT, 0.1% Tween-20; 1 mg/mL LARS1
T1 construct: full length 1-1176, His-tagged in pQE-80L (BamHI/HindIII), E. coli Rosetta (DE3); tag removal not mentioned; one molecule in the asymmetric unit; lysines reductively methylated in LARS1-methyl (6KR7)

[2] = target: T1, LARS1 (leucyl-tRNA synthetase 1); test: X-ray crystallography, co-crystal; details: 2 mM leucine; bis-tris pH 6.5, 1.6 M ammonium sulfate; LARS1-Leu^syn, synthetic site
[3] = target: T1, LARS1 (leucyl-tRNA synthetase 1); test: microscale thermophoresis (Monolith NT.[…], RED-tris-NTA labelled His-LARS1)

T1 sequence (Q9P2J5 whole entry): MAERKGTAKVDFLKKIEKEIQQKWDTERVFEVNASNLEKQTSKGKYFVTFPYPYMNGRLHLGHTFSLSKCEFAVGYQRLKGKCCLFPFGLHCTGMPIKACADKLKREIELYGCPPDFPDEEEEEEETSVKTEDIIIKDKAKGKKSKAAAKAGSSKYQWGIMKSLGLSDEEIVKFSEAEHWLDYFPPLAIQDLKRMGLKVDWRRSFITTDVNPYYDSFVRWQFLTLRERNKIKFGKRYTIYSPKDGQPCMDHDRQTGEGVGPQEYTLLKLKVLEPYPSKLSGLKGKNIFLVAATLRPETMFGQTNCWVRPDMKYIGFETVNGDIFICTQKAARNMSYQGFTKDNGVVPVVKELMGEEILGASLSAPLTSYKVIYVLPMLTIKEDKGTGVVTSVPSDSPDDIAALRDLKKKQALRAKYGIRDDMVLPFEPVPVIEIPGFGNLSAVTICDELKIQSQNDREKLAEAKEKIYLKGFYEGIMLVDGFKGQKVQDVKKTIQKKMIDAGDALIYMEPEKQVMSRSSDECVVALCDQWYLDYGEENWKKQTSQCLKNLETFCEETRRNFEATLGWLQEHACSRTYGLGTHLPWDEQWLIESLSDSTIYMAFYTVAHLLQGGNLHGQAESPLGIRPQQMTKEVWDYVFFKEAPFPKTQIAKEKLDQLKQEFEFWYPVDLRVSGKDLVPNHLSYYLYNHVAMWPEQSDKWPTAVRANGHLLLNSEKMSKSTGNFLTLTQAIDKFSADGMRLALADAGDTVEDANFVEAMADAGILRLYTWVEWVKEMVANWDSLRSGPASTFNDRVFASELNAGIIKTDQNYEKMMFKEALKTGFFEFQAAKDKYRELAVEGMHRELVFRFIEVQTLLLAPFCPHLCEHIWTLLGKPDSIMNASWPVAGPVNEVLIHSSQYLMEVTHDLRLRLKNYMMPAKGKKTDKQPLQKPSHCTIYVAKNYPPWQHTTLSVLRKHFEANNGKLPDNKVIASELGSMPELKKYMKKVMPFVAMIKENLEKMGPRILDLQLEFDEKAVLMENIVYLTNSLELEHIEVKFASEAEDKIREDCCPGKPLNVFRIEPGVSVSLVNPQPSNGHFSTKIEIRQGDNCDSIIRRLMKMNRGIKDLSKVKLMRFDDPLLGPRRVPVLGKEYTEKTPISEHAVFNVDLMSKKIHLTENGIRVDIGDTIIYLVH

- Kd [3]: 119 ± 63.1 µM
SMILES: CC(C)C[C@H](N)C(=O)O [L-Leucine]
- Ti [1]: LARS1 was incubated with leucine and the inflection temperature (Ti) was measured
- X-ray crystallography, co-crystal [2]: prepare LARS1-Leu^syn crystals subsequently deposited in PDB with the code 6KQY
